69 sequences from the OligoGym collection can be followed below.

“And” between values parts separate entries of the source, which are not always exact repeats. Identical values can stand only once. After the bases stand the sugars from the 5' end (letter, count) and the backbone: PS all phosphorothioate, else s phosphorothioate and o phosphodiester by linkage. Methylation of C is not given here. e = 2'-O-(2-methoxyethyl) (MOE); k = constrained ethyl (cEt); d = 2'-deoxy (DNA)

For the first data set, the target named is IRF4. To be noted: ASO, MM.1R, 0.0625 µM.
As for ACTGTTACCGATGCTT (sugars k3 d10 k3, PS), the target mRNA inhibition is -11%.

The same data set, now with this note: ASO, MM.1R, 0.25 µM.
Regarding ACTGTTACCGATGCTT (sugars k3 d10 k3, PS), the target mRNA inhibition stood at 4%.

Staying with this data set, now noted: ASO, MM.1R, 1 µM.
Turning to GGCGACTGCTGAAAAC (sugars k3 d10 k3, PS), the target mRNA inhibition is -10%.
Consider CACCAGCCATCGGCAG (sugars k3 d10 k3, PS), for which the target mRNA inhibition was -19%.
Turning to CGCGACTCTGTCAGTT (sugars k3 d10 k3, PS), the target mRNA inhibition turned out to be 8%.
ATGTAAAGTCTGCTGA (sugars k3 d10 k3, PS): the target mRNA inhibition turned out to be 20%.
For the sequence GCTAGATTCTCCCTGC (sugars k3 d10 k3, PS), the target mRNA inhibition is -13%.
As to GAGCCAGAGCAGTAAA (sugars k3 d10 k3, PS), the target mRNA inhibition is -2%.
As to TGTGCTTGCCAAGCCT (sugars k3 d10 k3, PS), the target mRNA inhibition is 38% and 49%.
On to “AGCATTTTATCATCCG (sugars kdddddddddkekeke, PS)”, for which the target mRNA inhibition amounted to 24%.
CATAGGTCCTTCAGAT (sugars k3 d10 k3, PS): the target mRNA inhibition was -5%.
For GCCGATCATCAACTTC (sugars k3 d10 k3, PS), the target mRNA inhibition turned out to be 26%.
On the same count and under the same terms, the value for AGGGACCGCGCCAGGC (sugars k3 d10 k3, PS) was 0%; that for “GAAGCATTTTATCATC (sugars e1 k2 d9 k2 e2, PS)” was 1%; that for ATAGAGCATCACTATT (sugars k3 d10 k3, PS) was 0%.
Regarding “AGTGACTTGCATCCAT (sugars kkddddddddddkeke, PS)”, the target mRNA inhibition stood at 50%.
For CCCTACCTTTTTTGGC (sugars k3 d10 k3, PS), the target mRNA inhibition is -7%.
On to TCCGAGCTCGGCCCCC (sugars k3 d10 k3, PS), for which the target mRNA inhibition is -10%.
On to ACTGTTACCGATGCTT (sugars k3 d10 k3, PS), for which the target mRNA inhibition is 43% and 25%.
For “ACAGTGACTTGCATCC (sugars k2 d9 e3 k2, PS)”, the target mRNA inhibition worked out at 27%.
The same measure, in the same setting: with “GAAGTTTACACTGGAT (sugars kkkdddddddddkeke, PS)” the figure was 49%; with “ATGTGATAGCTGAGCT (sugars kdddddddddkekeke, PS)”, 15%.
Consider CCTGAAAAGAGCCGCC (sugars k3 d10 k3, PS), for which the target mRNA inhibition was -3%.
Turning to GAAACGGCCTGGAGGT (sugars k3 d10 k3, PS), the target mRNA inhibition worked out at 17%.
For “TGTGCTTGCCAAGCCT (sugars k2 d9 e3 k2, PS)”, the target mRNA inhibition was 45% and 40%.
On the same count and under the same terms, the value for GTTGCATAGGCATCCT (sugars k3 d10 k3, PS) was 27%.
In the case of ATGCCATGGACAAGTT (sugars k3 d10 k3, PS), the target mRNA inhibition is 18%.
Regarding “CTCTATAGTGTTCCAG (sugars kkkddddddddkekek, PS)”, the target mRNA inhibition worked out at 15%.

The same data set, now with this note: ASO, MM.1R, 4 µM.
Take ACTGTTACCGATGCTT (sugars k3 d10 k3, PS): the target mRNA inhibition was 65%.

Staying with this data set, now noted: ASO, SK-MEL-28, 4 µM.
Regarding GCCAAGACCAGCTCTT (sugars k3 d10 k3, PS), the target mRNA inhibition worked out at 30%.
For CCTTGAAGAGCGCGGC (sugars k3 d10 k3, PS), the target mRNA inhibition came out at 24%.
The same measure, in the same setting: with GATAAAGGCTGAACTG (sugars k3 d10 k3, PS) the figure was 67%; with CGTAACTCAGGCACCA (sugars k3 d10 k3, PS), 30%.
Consider TGTCCAGCTGGCTCCG (sugars k3 d10 k3, PS), for which the target mRNA inhibition turned out to be 39%.
As to CAGGAAACCGCTGGCA (sugars k3 d10 k3, PS), the target mRNA inhibition is 74%.
Same read-out and setting: with CGCGAAGGCTCCTACC (sugars k3 d10 k3, PS) the figure was -41%.
ATGGAAATACGACAAC (sugars k3 d10 k3, PS): the target mRNA inhibition was 35%.
Turning to GGGCAATGGAGTCTCG (sugars k3 d10 k3, PS), the target mRNA inhibition came out at 24%.
As for TCGGAACTTTCCTTTA (sugars k3 d10 k3, PS), the target mRNA inhibition came out at 33%.
Consider GGAATCTTGGCAGGGA (sugars k3 d10 k3, PS), for which the target mRNA inhibition stood at 48%.
On the same count and under the same terms, with AAGTCATTGCTCTTGT (sugars k3 d10 k3, PS) the figure was 28%; with GAACCTGCTGGGCTGG (sugars k3 d10 k3, PS), 36%.
Still for that read-out and setting: the value for TGGAAACCAGCCCTTG (sugars k3 d10 k3, PS) was 48%; that for GCAATTGAAATGGAGC (sugars k3 d10 k3, PS) was 24%; that for TCTGAGAGCAAATTGA (sugars k3 d10 k3, PS) was 29%.
For TTAGCAATTCCTGTTG (sugars k3 d10 k3, PS), the target mRNA inhibition stood at 20%.
On the same count and under the same terms, with CCCCAGTCTACTGCTG (sugars k3 d10 k3, PS) the figure was 47%; with AAAGATACAAAACGGA (sugars k3 d10 k3, PS), 38%; with GCTCACTGCTCACTAA (sugars k3 d10 k3, PS), 33%.
On the same count and under the same terms, the value for AGCTCCACTGTTAAAG (sugars k3 d10 k3, PS) was 44%; that for GTGGAACTCATAGGTG (sugars k3 d10 k3, PS) was 53%.
On the same count and under the same terms, the value for GGAAACGAGAACGCAC (sugars k3 d10 k3, PS) was 30%.
For GTCTAAACCAGCATAT (sugars k3 d10 k3, PS), the target mRNA inhibition came to 19%.
Regarding AGTCAAGCCCCAAGCC (sugars k3 d10 k3, PS), the target mRNA inhibition turned out to be 13%.
For the sequence AGCAAAACGCAGAGCC (sugars k3 d10 k3, PS), the target mRNA inhibition turned out to be 61%.
Regarding TTTTACCTGGTATTGC (sugars k3 d10 k3, PS), the target mRNA inhibition is -2%.
Take TGGTAGAATGTGATAT (sugars k3 d10 k3, PS): the target mRNA inhibition is 43%.
With TTAACCATTACTTAGA (sugars k3 d10 k3, PS), the target mRNA inhibition turned out to be 45%.
As to CTCACTGCTCACTAAG (sugars k3 d10 k3, PS), the target mRNA inhibition worked out at 64%.
Same read-out and setting: with GTTACTAATTCCATAG (sugars k3 d10 k3, PS) the figure was 49%; with AAAGGTTCCTGTCACC (sugars k3 d10 k3, PS), 38%; with CCAGGTTCATGCCCCG (sugars k3 d10 k3, PS), 54%.
On the same count and under the same terms, with GCTCACTATTAAACAG (sugars k3 d10 k3, PS) the figure was -12%.
The same measure, in the same setting: the value for ATTTCATAGCTAGTTC (sugars k3 d10 k3, PS) was 44%.
Take GACCTAACTAAATGTC (sugars k3 d10 k3, PS): the target mRNA inhibition is -18%.
On the same count and under the same terms, with TGTATACATCACTGCA (sugars k3 d10 k3, PS) the figure was 63%; with GACAAGAACTGCTGTG (sugars k3 d10 k3, PS), 15%.
Regarding CAATGAACGGAAGTTT (sugars k3 d10 k3, PS), the target mRNA inhibition was determined as 33%.
On the same count and under the same terms, with CTATAATTGGCACGAG (sugars k3 d10 k3, PS) the figure was 63%; with GTCTAAAGTCCCATCG (sugars k3 d10 k3, PS), 40%.
For GAAATGTGTTGGAAGA (sugars k3 d10 k3, PS), the target mRNA inhibition was 68%.
For the sequence GTAGTCCTGCTTGCCC (sugars k3 d10 k3, PS), the target mRNA inhibition was 44%.
